How the values were obtained:
Test in all cases: 3H-thymidine assay
Type in all cases: cell-based
[1] = tested on: K-562 leukemic cells; settings: Homo sapiens, K562
Procedure: (§1) The cell lines were cultivated as indicated in Example 1.
(§2) The antiproliferative effect of the 1,2-benzopyrone derivatives according to the invention on the tumor cell lines in each case was shown with the help of the ^3 H-thymidine insertion and with reference to growth curves.
(§3) In a 24-well-plate, in each case 10^4 cells of the line to be investigated were inoculated per well. Approximately 48 hours later the cells were half-confluent; the medium was then changed and replaced by a medium containing the active substance in question (cf Table 3). After a further 48 hours 0.25 μCi ^3 H-thymidine (Ammersham) was added to each well and the cells were incubated for a further 24 hours. Subsequently the cultures were washed twice with ice-cold PBS and the high-molecular-weight ^3 H-radioactivity was precipitated with 5% trichloroacetic acid for one hour at 4° C. After the washing of the cells in PBS the ^3 H-radioactivity was solubilized with 0.3M NaOH and measured in the counter. The growth-inhibition was determined by comparing the thymidine insertion of the cells treated with active substance with untreated cells.
(§4) The active substance concentration in each case was so chosen that ^3 H-thymidine insertion was 50% inhibited. The active substance concentrations used under this aspect for the active substances and cell lines in each case are given in table 4 below in μM/ml, […]

[2] = tested on: MCF-7 breast cancer cells; settings: Homo sapiens, MCF7
Procedure: as §1, §2, §3, §4

[3] = tested on: CAKI-1 cells; settings: Homo sapiens, CAKI-1
Procedure: as §1, §2, §3, §4

[4] = tested on: At T 20; settings: Mus musculus, AtT20
Procedure: as §1, §2, §3, §4

[5] = tested on: A-375 melanoma cells; settings: Homo sapiens, A-375
[6] = tested on: Tp 410 N neuroblastoma cells; settings: Homo sapiens, Neuroblastoma cell
[7] = tested on: Tp 242 MG glioblastoma cells; settings: Homo sapiens
[8] = tested on: Tp 483 MG glioblastoma cells
[9] = tested on: Daudi leukemic cells; settings: Homo sapiens
[10] = tested on: Z-R-75-1 breast cancer cells; settings: Homo sapiens, ZR-75-1
[11] = 1 μM/ml, read-out: 3H-thymidine tracer (%) of control
[12] = 2 μM/ml, read-out: 3H-thymidine tracer (%) of control
[13] = 4 μM/ml, read-out: 3H-thymidine tracer (%) of control
[14] = 8 μM/ml, read-out: 3H-thymidine tracer (%) of control
[15] = 16 μM/ml, read-out: 3H-thymidine tracer (%) of control
[16] = 25 μM/ml, read-out: 3H-thymidine tracer (%) of control
[17] = 50 μM/ml, read-out: 3H-thymidine tracer (%) of control
[18] = 100 μM/ml, read-out: 3H-thymidine tracer (%) of control
[19] = 250 μM/ml, read-out: 3H-thymidine tracer (%) of control
[20] = 500 μM/ml, read-out: 3H-thymidine tracer (%) of control
[21] = Table 4, read-out: active substance concentration at which 3H-thymidine insertion was 50% inhibited
[22] = Table 4, *: maximum usable dosage, no 50% inhibition, read-out: active substance concentration at which 3H-thymidine insertion was 50% inhibited
[23] = 1 μM/ml, read-out: 3H-thymidine insertion (%) of control
[24] = 2 μM/ml, read-out: 3H-thymidine insertion (%) of control
[25] = 4 μM/ml, read-out: 3H-thymidine insertion (%) of control
[26] = 8 μM/ml, read-out: 3H-thymidine insertion (%) of control
[27] = 16 μM/ml, read-out: 3H-thymidine insertion (%) of control
[28] = 25 μM/ml, read-out: 3H-thymidine insertion (%) of control
[29] = 50 μM/ml, read-out: 3H-thymidine insertion (%) of control
[30] = 100 μM/ml, read-out: 3H-thymidine insertion (%) of control
[31] = 250 μM/ml, read-out: 3H-thymidine insertion (%) of control
[32] = 500 μM/ml, read-out: 3H-thymidine insertion (%) of control

## O=c1ccc2cc(O)c(O)cc2o1 [Esculetin, 6,7-hydroxy-1,2-benzopyrone]
[1]; [11]
  activity at 1 µM: 97%
[1]; [12]
  activity at 2 µM: 95%
[1]; [13]
  activity at 4 µM: 84%
[1]; [14]
  activity at 8 µM: 77%
[1]; [15]
  activity at 16 µM: 62%
[1]; [16]
  activity at 25 µM: 58%
[1]; [17]
  activity at 50 µM: 50%
[1]; [18]
  activity at 100 µM: 47%
[1]; [19]
  activity at 250 µM: 44%
[1]; [20]
  activity at 500 µM: 31%
[1]; [21]
  IC50: 50 µM
[2]; [11]
  activity at 1 µM: 100%
[2]; [12]
  activity at 2 µM: 98%
[2]; [13]
  activity at 4 µM: 92%
[2]; [14]
  activity at 8 µM: 85%
[2]; [15]
  activity at 16 µM: 76%
[2]; [16]
  activity at 25 µM: 69%
[2]; [17]
  activity at 50 µM: 64%
[2]; [18]
  activity at 100 µM: 58%
[2]; [19]
  activity at 250 µM: 50%
[2]; [20]
  activity at 500 µM: 42%
[2]; [22]
  IC50: 250 µM
[3]; [11]
  activity at 1 µM: 96%
[3]; [12]
  activity at 2 µM: 93%
[3]; [13]
  activity at 4 µM: 88%
[3]; [14]
  activity at 8 µM: 80%
[3]; [15]
  activity at 16 µM: 62%
[3]; [16]
  activity at 25 µM: 58%
[3]; [17]
  activity at 50 µM: 53%
[3]; [18]
  activity at 100 µM: 45%
[3]; 150 μM/ml, read-out: 3H-thymidine tracer (%) of control
  activity at 150 µM: 40%
[3]; [20]
  activity at 500 µM: 32%
[3]; [22]
  IC50: 50 µM
[4]; [11]
  activity at 1 µM: 93%
[4]; [12]
  activity at 2 µM: 89%
[4]; [13]
  activity at 4 µM: 86%
[4]; [14]
  activity at 8 µM: 75%
[4]; [15]
  activity at 16 µM: 75%
[4]; [16]
  activity at 25 µM: 67%
[4]; [17]
  activity at 50 µM: 62%
[4]; [18]
  activity at 100 µM: 55%
[4]; [19]
  activity at 250 µM: 49%
[4]; [20]
  activity at 500 µM: 44%
[4]; [21]
  IC50: 250 µM
[5]; [11]
  activity at 1 µM: 98%
[5]; [12]
  activity at 2 µM: 91%
[5]; [13]
  activity at 4 µM: 89%
[5]; [14]
  activity at 8 µM: 84%
[5]; [15]
  activity at 16 µM: 75%
[5]; [16]
  activity at 25 µM: 70%
[5]; [17]
  activity at 50 µM: 65%
[5]; [18]
  activity at 100 µM: 63%
[5]; [19]
  activity at 250 µM: 59%
[5]; [20]
  activity at 500 µM: 55%
[5]; [22]
  IC50: > 500 µM
[6]; [23]
  activity at 1 µM: 94%
[6]; [24]
  activity at 2 µM: 86%
[6]; [25]
  activity at 4 µM: 75%
[6]; [26]
  activity at 8 µM: 69%
[6]; [27]
  activity at 16 µM: 64%
[6]; [28]
  activity at 25 µM: 48%
[6]; [29]
  activity at 50 µM: 42%
[6]; [30]
  activity at 100 µM: 40%
[6]; [31]
  activity at 250 µM: 34%
[6]; [32]
  activity at 500 µM: 29%
[6]; [21]
  IC50: 25 µM
[7]; [23]
  activity at 1 µM: 96%
[7]; [24]
  activity at 2 µM: 96%
[7]; [25]
  activity at 4 µM: 89%
[7]; [26]
  activity at 8 µM: 87%
[7]; [27]
  activity at 16 µM: 75%
[7]; [28]
  activity at 25 µM: 72%
[7]; [29]
  activity at 50 µM: 60%
[7]; [30]
  activity at 100 µM: 44%
[7]; [31]
  activity at 250 µM: 32%
[7]; [32]
  activity at 500 µM: 21%
[7]; [21]
  IC50: 75 µM
[8]; [23]
  activity at 1 µM: 98%
[8]; [24]
  activity at 2 µM: 94%
[8]; [25]
  activity at 4 µM: 85%
[8]; [26]
  activity at 8 µM: 77%
[8]; [27]
  activity at 16 µM: 73%
[8]; [28]
  activity at 25 µM: 69%
[8]; [29]
  activity at 50 µM: 62%
[8]; [30]
  activity at 100 µM: 55%
[8]; [31]
  activity at 250 µM: 39%
[8]; [32]
  activity at 500 µM: 28%
[8]; [21]
  IC50: 150 µM
[9]; [11]
  activity at 1 µM: 94%
[9]; [12]
  activity at 2 µM: 96%
[9]; [13]
  activity at 4 µM: 83%
[9]; [14]
  activity at 8 µM: 75%
[9]; [15]
  activity at 16 µM: 69%
[9]; [16]
  activity at 25 µM: 63%
[9]; [17]
  activity at 50 µM: 61%
[9]; [18]
  activity at 100 µM: 57%
[9]; [19]
  activity at 250 µM: 54%
[9]; [20]
  activity at 500 µM: 39%
[9]; [21]
  IC50: 250 µM
[10]; [11]
  activity at 1 µM: 98%
[10]; [12]
  activity at 2 µM: 96%
[10]; [13]
  activity at 4 µM: 89%
[10]; [14]
  activity at 8 µM: 84%
[10]; [15]
  activity at 16 µM: 77%
[10]; [16]
  activity at 25 µM: 70%
[10]; [17]
  activity at 50 µM: 61%
[10]; [18]
  activity at 100 µM: 53%
[10]; [19]
  activity at 250 µM: 46%
[10]; [20]
  activity at 500 µM: 39%
[10]; [22]
  IC50: 175 µM

From patent publication US5525626A (priority 1989, dated 1996)
